Active and inactive are the calls of the source. The calls are words filed in the database; no cut-off is given here.

What all share (type): cell-based
Experiment [1] deals with Transcriptional regulator ATRX (Mus musculus) (UniProt Q61687). As to the kind of experiment: Inhibition of ATRX in mouse C2C12 cells assessed as reduction in phospho-sites occupancy at 4 uM after 5 hrs by SILAC based LC-MS/MS analysis relative to control.
Experiment [2] addresses E3 ubiquitin-protein ligase NEDD4 (Mus musculus) (UniProt P46935). As to the kind of experiment: Inhibition of Nedd4 in mouse C2C12 cells assessed as reduction in phospho-sites occupancy at 4 uM after 5 hrs by SILAC based LC-MS/MS analysis relative to control.
Experiment [3] addresses WASH complex subunit 2 (Mus musculus) (UniProt Q6PGL7). Kind of experiment: Inhibition of Washc2 in mouse C2C12 cells assessed as reduction in phospho-sites occupancy at 4 uM after 5 hrs by SILAC based LC-MS/MS analysis relative to control.
Experiment [4] has as its target Cyclin-dependent kinase 4 (Mus musculus) (UniProt P30285). Kind of experiment: Inhibition of Cdk4 in mouse C2C12 cells assessed as reduction in phospho-sites occupancy at 4 uM after 5 hrs by SILAC based LC-MS/MS analysis relative to control.
A further experiment deals with Kinectin (Mus musculus) (UniProt Q61595). As to the kind of experiment: Inhibition of Ktn1 in mouse C2C12 cells assessed as reduction in phospho-sites occupancy at 4 uM after 5 hrs by SILAC based LC-MS/MS analysis relative to control.
Experiment [5] addresses Rho GTPase-activating protein 35 (Mus musculus) (UniProt Q91YM2). As to the kind of experiment: Inhibition of Arhgap35 in mouse C2C12 cells assessed as reduction in phospho-sites occupancy at 4 uM after 5 hrs by SILAC based LC-MS/MS analysis relative to control.
The target in experiment [6] is Lamina-associated polypeptide 2, isoforms beta/delta/epsilon/gamma (Mus musculus) (UniProt Q61029). As to the kind of experiment: Inhibition of LAP2B epsilon in mouse C2C12 cells assessed as reduction in phospho-sites occupancy at 4 uM after 5 hrs by SILAC based LC-MS/MS analysis relative to control.
Experiment [7] deals with Nucleolar RNA helicase 2 (Mus musculus) (UniProt Q9JIK5). Kind of experiment: Inhibition of Ddx21 in mouse C2C12 cells assessed as reduction in phospho-sites occupancy at 4 uM after 5 hrs by SILAC based LC-MS/MS analysis relative to control.
Experiment [8] deals with La-related protein 1 (Mus musculus) (UniProt Q6ZQ58). As to the kind of experiment: Inhibition of Larp1 in mouse C2C12 cells assessed as reduction in phospho-sites occupancy at 4 uM after 5 hrs by SILAC based LC-MS/MS analysis relative to control.
The target of experiment [9] is Centrosomal protein of 170 kDa (Mus musculus) (UniProt Q6A065). As to the kind of experiment: Inhibition of Cep170 in mouse C2C12 cells assessed as reduction in phospho-sites occupancy at 4 uM after 5 hrs by SILAC based LC-MS/MS analysis relative to control.
Experiment [10] addresses T1, Casein kinase 2 (Mus musculus) (UniProt Q60737+P67871+O54833+Q8CH19). As to the kind of experiment: Inhibition of CK2 in mouse C2C12 cells assessed as reduction in CDC37 phosphorylation at S13 residues at 1 to 4 uM by Western blot analysis. The following applies: dose 1-4 µM. On the technique in general: In western blotting, separated proteins are transferred to a membrane and probed.

The target of experiment [11] is Dihydropyrimidinase-related protein 3 (Mus musculus) (UniProt Q62188). As to the kind of experiment: Inhibition of Dihydropyrimidinase-related protein 3 in mouse C2C12 cells assessed as reduction in phospho-sites occupancy at 4 uM after 5 hrs by SILAC based LC-MS/MS analysis relative to control.
Experiment [12] has as its target T1, Casein kinase 2 (Mus musculus). As to the kind of experiment: Inhibition of CK2 in mouse C2C12 cells assessed as reduction in CK2 substrates phosphorylation at 1 to 4 uM by Western blot analysis. The note with it: dose 1-4 µM.
Experiment [13] addresses Fermitin family homolog 2 (Mus musculus) (UniProt Q8CIB5). Kind of experiment: Inhibition of Fermt2 in mouse C2C12 cells assessed as reduction in phospho-sites occupancy at 4 uM after 5 hrs by SILAC based LC-MS/MS analysis relative to control.
In experiment [14] the target is Desmoyokin (Mus musculus) (UniProt Q61484). Kind of experiment: Inhibition of AHNAK in mouse C2C12 cells assessed as reduction in phospho-sites occupancy at 4 uM after 5 hrs by SILAC based LC-MS/MS analysis relative to control.
For experiment [15], the target named is Pleckstrin homology-like domain family B member 1 (Mus musculus) (UniProt Q6PDH0). As to the kind of experiment: Inhibition of Phldb1 in mouse C2C12 cells assessed as reduction in phospho-sites occupancy at 4 uM after 5 hrs by SILAC based LC-MS/MS analysis relative to control.
In experiment [16] the target is Serine/arginine repetitive matrix protein 1 (Mus musculus) (UniProt Q52KI8). As to the kind of experiment: Inhibition of Srrm1 in mouse C2C12 cells assessed as reduction in phospho-sites occupancy at 4 uM after 5 hrs by SILAC based LC-MS/MS analysis relative to control.
Experiment [17] has as its target Protein transport protein Sec31A (Mus musculus) (UniProt Q3UPL0). Kind of experiment: Inhibition of Sec31a in mouse C2C12 cells assessed as reduction in phospho-sites occupancy at 4 uM after 5 hrs by SILAC based LC-MS/MS analysis relative to control.
Experiment [18] addresses 1-phosphatidylinositol 4,5-bisphosphate phosphodiesterase delta-3 (Mus musculus) (UniProt Q8K2J0). As to the kind of experiment: Inhibition of Plcd3 in mouse C2C12 cells assessed as reduction in phospho-sites occupancy at 4 uM after 5 hrs by SILAC based LC-MS/MS analysis relative to control.
Experiment [19] concerns the target DNA replication licensing factor MCM2 (Mus musculus) (UniProt P97310). As to the kind of experiment: Inhibition of Mcm2 in mouse C2C12 cells assessed as reduction in phospho-sites occupancy at 4 uM after 5 hrs by SILAC based LC-MS/MS analysis relative to control.
Experiment [20] has as its target T1, Casein kinase 2 (Mus musculus). Kind of experiment: Inhibition of CK2 in mouse C2C12 cells assessed as reduction in Akt phosphorylation at S129 residues at 1 to 4 uM by Western blot analysis. The following applies: dose 1-4 µM.
Experiment [21] addresses Autophagy-related protein 9A (Mus musculus) (UniProt Q68FE2). As to the kind of experiment: Inhibition of Atg9a in mouse C2C12 cells assessed as reduction in phospho-sites occupancy at 4 uM after 5 hrs by SILAC based LC-MS/MS analysis relative to control.
Experiment [22] deals with tRNA (guanine(26)-N(2))-dimethyltransferase (Mus musculus) (UniProt Q3TX08). As to the kind of experiment: Inhibition of Trmt1 in mouse C2C12 cells assessed as reduction in phospho-sites occupancy at 4 uM after 5 hrs by SILAC based LC-MS/MS analysis relative to control.
The target of experiment [23] is EH domain-containing protein 2 (Mus musculus) (UniProt Q8BH64). As to the kind of experiment: Inhibition of Ehd2 in mouse C2C12 cells assessed as reduction in phospho-sites occupancy at 4 uM after 5 hrs by SILAC based LC-MS/MS analysis relative to control.

Turning to `O=C(O)c1ccc2c(c1)nc(Nc1cccc(Cl)c1)c1ccncc12`, the fold change (FC) came out at 2.22 in [1]; 3.66 in experiment [2]; 3.41 in experiment [3]; 2.6 in experiment [4]; 1.54 on Kinectin (Mus musculus); 1.95 in [5]. For the same molecule, the fold change (FC) in [6] came to 1.82; in experiment [7], 1.85; in [8] it was 1.84; in [9], 1.56; in [11] it was 2.57; in experiment [13] it was 2.53. The fold change (FC) in [14] worked out at 1.54; in experiment [15] it was 2.12; in experiment [16], 1.7; in experiment [17], 2.28; in experiment [18], 2.53; in experiment [19], 1.83. In addition, the fold change (FC) in experiment [21] came to 1.5; in [22], 1.54; in [23] it was 1.65. For the same molecule, the inhibition entry in experiment [10], in experiment [12] and in experiment [20] was “Active” in each case.

The record behind these values is ChEMBL document CHEMBL4813950, “Comparing the efficacy and selectivity of Ck2 inhibitors. A phosphoproteomics approach” (Eur J Med Chem, 2021).
